Data set [1] concerns S. mansoni schistosomula. Briefly: Screening of S. mansoni schistosomula (Roboworm, motility and phenotype). The data set is classed as cell-based, Schistosoma mansoni. As to conditions: for Selectivity index, schistosomula motility: HepG2 CC50 / schistosomula motility EC50; for Selectivity index, schistosomula phenotype: HepG2 CC50 / schistosomula phenotype EC50; for EC50: Schistosoma mansoni, average across motility and phenotype, read-out: average EC50 for phenotype and motility, schistosomula; for concentrations at which schistosomula phenotype was affected / concentrations at which schistosomula motility was affected: titration 10 to 0.625 μM; for concentrations at which schistosomula phenotype was affected: hit below -0.15; for concentrations at which schistosomula motility was affected: hit below -0.35. The method, then:
Biomphalaria glabrata (NMRI and the previously described pigmented strains) snails infected with S. mansoni (Puerto Rican strain) were shed for 2 hrs under light at 26 °C. Cercariae were collected, mechanically transformed into schistosomula and subsequently prepared for high throughput screening (HTS) on the Roboworm platform as previously described. Schistosomula were cultured in Basch Media (composed of BME media, 10% M169 media, 0.5x MEM vitamins, 10% Schneider’s insect media, 15.6mM Hepes, 5% heat inactivated FBS, 2x Antibiotic/anti-mycotic (Sigma-Aldrich, UK) solution (final concentrations shown)).
EC50 values were calculated from the titrated concentrations by non-linear regression, after log transformation of concentrations and data normalization using GraphPad Prism 7.02.
Fig 2 Anti-schistosomula activity of the eight analogues compared to parent compound 1. […] Test plates were incubated at 37°C for 72 hrs in an atmosphere containing 5% CO2. At 72hrs, schistosomula were scored using the Roboworm platform for both motility (A) and phenotype (B). Any compound that induced a score of below -0.35 for motility (A) and -0.15 for phenotype (B) were considered a hit. Black squares indicate the most positive effect on motility or phenotype; grey scale from dark grey to lighter shades of grey indicates a progressive reduced compound efficacy; white squares indicate no effect on either phenotype or motility. Z´ values for this screen was 0.41741 for motility and 0.57275 for phenotype. (C) Phenotypes of schistosomula when treated with 10μM of each of the test compounds and controls.
Supplementary file pntd.0008630.s003.tif: S1 Fig Initial schistosomula screens of the 14 compounds and their intermediate analogues. […] Test plates were incubated at 37°C for 72 hrs in an atmosphere containing 5% CO2. At 72hrs, schistosomula were scored using the Roboworm platform for both motility and phenotype as previously described. A) Of the 14 compounds evaluated, two fell within the hit region. Z’ scores for motility and phenotype were 0.40079 and 0.56846 respectively. […] Z´ scores for motility and phenotype were 0.37864 and 0.47882 respectively. *Average EC50 value across motility and phenotype is presented for each compound. (TIF) Click here for additional data file.

Data set [2] deals with juvenile S. mansoni worms. Kind of data set: Propidium iodide (PI) staining of juvenile S. mansoni worms. The data set is classed as cell-based, Schistosoma mansoni. As to conditions: 72 hrs. As to the method: Juvenile S. mansoni parasites were recovered via hepatic portal vein perfusion from TO outbred mice (HsdOla:TO, Tuck-Ordinary, Envigo, UK) that were infected percutaneously three weeks earlier with 4000 cercariae. Preparation and centrifugation of juvenile worms have been described previously. […] After motility quantification, 2 μg/mL of PI was added to each well and the plate returned to 37°C, 5% CO2 for 15 minutes. Each well was subsequently imaged on the Roboworm platform using brightfield and fluorescent microscopy (excitation wavelength = 580 nm; emission wavelength = 604 nm). The number of PI positive vs PI negative juvenile worms were cross-checked with the motility scores obtained by our scoring matrix, and the data reported as percentage of PI positive across all parasites within the well. EC50 values were calculated from the motility scores obtained from the dose response titration (as detailed above) and dose response curves were obtained by non-linear regression, after log transformation of concentrations and data normalization using GraphPad Prism 7.02.
Three week juvenile schistosomes, incubated with compounds (1), (3) or controls for 72 hrs, were subsequently cultured with PI at a final concentration of 2 μg/mL for 15 minutes at 37 °C in an environment containing 5% CO2. PI positive parasites (dead) were counted and the percent live vs dead in each well is indicated. A) Quantification of compound (1) mediated juvenile death. B) Quantification of compound (3) mediated juvenile death.

A short description of data set [3]: Cell cytotoxicity assay (MTT). The data set is classed as cell-based, human. As to conditions: human, HepG2 cells, MTT, 95% confidence interval, called EC50.
Method: The cytotoxicity of each compound was assessed on human HepG2 cells as described previously [17]. Briefly, 2 x 10^4 cells/well were seeded in black walled 96-well microtiter plates (Fisher Scientific, Loughborough, UK) and incubated for 24 hr at 37°C in a humidified atmosphere containing 5% CO2. […] Following a further incubation for 24 hr, the MTT assay was performed as previously described [17, 27]. Dose response curves were obtained by non-linear regression, after log transformation of concentrations and data normalization using GraphPad Prism 7.02.
Data set [4] concerns S. aureus ATCC 29213. Briefly: Broth microdilution MIC and IC50 determination, S. aureus. The format is cell-based, Staphylococcus aureus. Particulars: for MIC: ATCC29213, 24 h. As to the method: S. aureus ATCC 29213 and E. coli ATCC 25922 were cultured in Luria-Bertani (LB) medium at 37°C with aeration at 200 rpm for 24 hr, with all procedures performed in a biosafety level 2 (BSL2) cabinet. Stationary phase cultures were then used for minimum inhibitory concentration (MIC) determination using the broth microdilution method, in fresh LB medium, in a 96-well plate. All compounds were tested in triplicate using an initial bacterial concentration of 5.0 × 10^5 colony forming units (CFU)/mL at a final concentration of 125 mg/L (5% and 2.5% v/v methanol). Compounds with no visible growth at 125 mg/L were further evaluated with progressing dilutions. […] Dilutions were repeated in three independent experiments where the optical density (OD600) was measured in a Hidex plate spectrophotometer and absorbance data used for the calculation of an IC50 value. The IC50 value was obtained from a dose response titration (125–0.09 mg/L). Dose response curves were obtained by non-linear regression, after log transformation of concentrations and data normalization using GraphPad Prism 7.02.
As Compound 1 was structurally similar to N-acyl homoserine lactones, a compound class involved in bacterial quorum sensing, we decided to assess its antimicrobial activity and determine if enantiomer separation or lactone ring substitution would change this activity.

[5] abbreviates: Staphylococcus aureus, 24 hr, no visible growth.
Setting [6] is: Staphylococcus aureus, value in square brackets, 24 hr.

The values below come from article PMC7595621, “Quorum sensing N-Acyl homoserine lactones are a new class of anti-schistosomal” (PLoS Neglected Tropical Diseases, 2020).

In brackets after ≈: the same amount, converted by molar mass.

With `O=C(CBr)NC1CCOC1=O` (stereo not drawn) [Compound 1, 2-bromo-N-(2-oxotetrahydrofuran-3-yl)acetamide], the “effect on schistosomula motility and phenotype metrics in initial screen” value in data set [1] (10 μM, 72 hrs) was “negatively affected both schistosomula motility and phenotype metrics”. In data set [1], the “Selectivity index, schistosomula motility” value was 11.5 and the “Selectivity index, schistosomula phenotype” value amounted to 7.9. In data set [1] (72 hrs), the EC50 was 4.7 µM, the “concentrations at which schistosomula phenotype was affected” value is “from 10 to 1.25” and the “concentrations at which schistosomula motility was affected” value is reported as “all concentrations tested”. Besides, the “good compound effect on schistosomula observed down to a concentration” value in data set [1] (titration of initial hits, S1B Fig) was 1.25 µM. For the same compound, the “Percent P.I positive parasites” value in data set [2] (3.75 μM) is 13.3%. In addition, the “Percent P.I positive parasites” value in data set [2] (7.5 μM) was 100%. The “Percent P.I positive parasites” value in data set [2] (15 μM) is 100%. In addition, the CC50 at 24 h in data set [3] was 43.5 µM. Further, in data set [4] (setting [5]), the MIC is 125 µg/mL. In data set [4] (setting [6]), the minimum inhibitory concentration (MIC) turned out to be 563 µM.
On to `O=C(CBr)NC1CCSC1=O` (stereo not drawn) [Compound 3, 2-bromo-N-(2-oxotetrahydrothiophen-3-yl)acetamide], for which, in data set [1], the “Selectivity index, schistosomula motility” value is on record as 9.8 and the “Selectivity index, schistosomula phenotype” value came to 8.1. In data set [1] (72 hrs), the EC50 came out at 2.1 µM, the “concentrations at which schistosomula phenotype was affected” value is recorded as “all concentrations tested” and the “concentrations at which schistosomula motility was affected” value was “all concentrations tested”. Besides, in data set [2], the “100% of the parasites PI positive down to concentration” value turned out to be 0.94 µM. For the same compound, in data set [3], the midpoint of cytotoxicity, the CC50 at 24 h, lay at 18.7 µM. In addition, in data set [4] (24 hr, no visible growth), the “S. aureus MIC” value was 31.3 mg/L. Besides, inhibition of growth in data set [4] (setting [5]) (MIC) required 31.2 µg/mL. Further, the MIC in data set [4] (setting [6]) was found to be 131 µM. In addition, in data set [4] (Staphylococcus aureus, ATCC29213, Table 3, OD600, three independent experiments, 95% confidence interval in parentheses), the 50% inhibitory concentration (IC50) was found to be 25.9 µg/mL (≈ 109 µM).
